Laboratory results published in US11654132B2, “Methods for treating COVID-19” (priority 2020, dated 2023).
Like-named read-outs stand apart in the source and are kept apart here.

Tests used:
SARS-CoVid-2 infection = details: combined with azithromycin; cited from earlier work
CYP = details: cited from earlier work
[1] = cited from earlier work; for in vivo activity: oral and/or intravenous administration, prodrug vs active form
[2] = test system: Lipopolysaccharide stimulated IL-1B production; details: ex-vivo; active metabolite; cited from earlier work
[3] = NASH patients; cited from earlier work
chronic HCV = details: cited from earlier work
[4] = in vivo; cited from earlier work
[5] = in vivo; cited from earlier work; remark: listed apart in the source
CYP3A4 = CYP3A4 (Homo sapiens, UniProt P08684); details: recombinant enzyme system; cited from earlier work
IL-1B = details: cited from earlier work
[6] = test system: CD4 T-cell pyroptotic death in HIV-infected lymphoid tissues; details: dose-dependent; cited from earlier work
IL-18 = details: cited from earlier work; for inhibition of IL-18: during the duration of the study
caspase-1 = target: T1, caspase-1 (Homo sapiens, UniProt P29466); details: healthy and disease states; cited from earlier work
T1 sequence (P29466 120-297 limits assumed): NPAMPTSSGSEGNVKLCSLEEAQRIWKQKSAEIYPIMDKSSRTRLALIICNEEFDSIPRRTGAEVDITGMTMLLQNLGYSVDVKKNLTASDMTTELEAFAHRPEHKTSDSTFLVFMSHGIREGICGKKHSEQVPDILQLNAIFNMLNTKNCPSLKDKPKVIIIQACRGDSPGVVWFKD
T1 sequence (P29466 317-404 limits assumed): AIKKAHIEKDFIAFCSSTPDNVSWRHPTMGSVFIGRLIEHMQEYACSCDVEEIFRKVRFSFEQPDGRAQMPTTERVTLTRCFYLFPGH

[7] = in vivo
[8] = in vivo; cited from earlier work; remark: listed apart in the source
[9] = dogs at 2000 mg/kg/day; cited from earlier work
SARS-CoV = details: in vitro; cited from earlier work
COVID-19 = details: mild to moderate COVID-19 at high risk of progressing to severe disease; cited from earlier work
SARS = details: 400 mg and 100 mg added to ribavirin vs historical control; cited from earlier work
SARS-CoV-2 = details: human, in vivo; cited from earlier work

Chain of CYP3A4 (P08684 whole entry): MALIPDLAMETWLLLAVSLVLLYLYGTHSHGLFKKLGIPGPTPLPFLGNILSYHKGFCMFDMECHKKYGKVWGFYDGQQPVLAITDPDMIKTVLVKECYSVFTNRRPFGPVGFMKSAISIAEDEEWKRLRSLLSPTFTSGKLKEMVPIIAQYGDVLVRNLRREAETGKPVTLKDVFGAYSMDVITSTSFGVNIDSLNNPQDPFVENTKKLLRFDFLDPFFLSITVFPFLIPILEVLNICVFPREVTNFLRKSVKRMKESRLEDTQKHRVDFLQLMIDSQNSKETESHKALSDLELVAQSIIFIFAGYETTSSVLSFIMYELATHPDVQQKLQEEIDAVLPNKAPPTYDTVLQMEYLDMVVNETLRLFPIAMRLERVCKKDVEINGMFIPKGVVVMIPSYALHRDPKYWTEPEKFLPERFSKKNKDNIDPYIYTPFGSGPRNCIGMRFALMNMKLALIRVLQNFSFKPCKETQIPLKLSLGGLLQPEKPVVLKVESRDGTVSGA

Compound: CCN(CCO)CCCC(C)Nc1ccnc2cc(Cl)ccc12 (centres unmarked) [Hydroxychloroquine]
- viral loads vs control patients (SARS-CoVid-2 infection): Viral loads appeared to diminish faster

Compound: CC(C)(C)C(NC(=O)c1ccc(N)c(Cl)c1)C(=O)N1CCCC1C(=O)NC(C=O)CC(=O)O (centres unmarked) [II]
- CYP-mediated metabolism as route of clearance (CYP; in vitro studies): not a major route of clearance
- bioavailability ([1]; active form): poor bioavailability
- in vivo activity [1]: less than optimal in vivo activity
- concentration at which Lipopolysaccharide stimulated IL-1B production is 50% suppressed [2]: 0.8 µg/mL

Compound: CC(C)[C@@]1(C(=O)N[C@H]2CC(=O)O[C@]2(O)CF)CC(c2nccc3ccccc23)=NO1 [Nivocasan]
- ALT levels [3]: Reductions in ALT levels in NASH
- reason for termination of Phase IIb (chronic HCV): significant laboratory abnormalities

Compound: CCO[C@@H]1OC(=O)C[C@@H]1NC(=O)[C@@H]1CCCN2C(=O)CC[C@H](NC(=O)c3nccc4ccccc34)C(=O)N12 [Pralnacasan]
- reason for termination in Phase IIb in RA [4]: liver toxicity in animals (102)
- clinical trial outcome in rheumatoid arthritis and osteoarthritis [5]: amelioration of RA, but not

Compound: CCO[C@@H]1OC(=O)C[C@@H]1NC(=O)[C@@H]1CCCN1C(=O)[C@@H](NC(=O)c1ccc(N)c(Cl)c1)C(C)(C)C [belnacasan]
- CYP-mediated metabolism as route of clearance (CYP): not a major route of clearance
- metabolism by CYP3A4 (CYP3A4): metabolized by CYP3A4
- in vivo activity [1]: better in vivo activity
- suppression of IL-1B (IL-1B; single oral dose of 400 mg): 50%
- suppression of IL-1B (IL-1B; single oral dose of 800 mg): 80%
- suppression of IL-1B (IL-1B; single oral dose of 1600 mg): 80%
- CD4 T-cell pyroptotic death [6]: Prevents CD4 T-cell
- inhibition of IL-18 (IL-18; 900 mg TID): 60%
- inhibition of IL-18 (IL-18; 1200 mg TID): 60%
- inhibition of IL-18 (IL-18; 1800 mg TID): 60%
- inhibition of IL-18 over 14 days as compared to placebo (IL-18; healthy controls): gradual but marked inhibition
- effect of blocking caspase-1 (caspase-1): prevent production of IL-1β, IL-18, and pyroptosis
- dog dose estimated as multiple of the maximum dose in this study [7]: 10-25 times
- adverse effects reported in humans [8]: mild and mainly include headache, nausea, lethargy and dizziness
- seizure [8]: reported in more than one patient
- severity of adverse events (CTCAE) [8]: mild and of no consequence (grade 1 and 2 by CTCAE criteria)
- only preclinical finding on toxicity studies [9]: reduction of the heart rate

Compound: Cc1cccc(C)c1OCC(=O)N[C@@H](Cc1ccccc1)[C@@H](O)C[C@H](Cc1ccccc1)NC(=O)[C@H](C(C)C)N1CCCNC1=O [lopinavir]
- activity against SARS-CoV (SARS-CoV): in vitro inhibitory activity

Compound: bamlanivimab: monoclonal antibody for COVID-19
- efficacy (COVID-19): efficacious

Compound: casirivimab: monoclonal antibody for COVID-19
- efficacy (COVID-19): efficacious

Compound: imdevimab: monoclonal antibody for COVID-19
- efficacy (COVID-19): efficacious

Compound: lopinavir—ritonavir
- risk of adverse clinical outcomes (ARDS or death) and viral load (SARS): reduced the risk of adverse clinical outcomes
- clinical symptoms, mortality, viral loads vs standard of care alone (SARS-CoV-2): no improvement in clinical symptoms, mortality, or viral loads
